This is an account of results in publication PMC3723632, “A Multi-targeted Drug Candidate with Dual Anti-HIV and Anti-HSV Activity” (PLoS Pathogens, 2013).

The structures appear in SMILES notation. ≈ marks a conversion by molar mass, not a printed value. Where two headings read alike, the source gives them in different places.

For data set [1], the system named is PBMC. Briefly: PBMC viability (trypan blue dye exclusion, flow cytometry). In kind it is cell-based, human. The note with it: 20, 100 and 500 µg/ml. On the technique in general: Flow cytometry measures light scatter and fluorescence of single cells or particles in a stream.
In data set [2] the test system is CXCR4 or CXCR3. The data set can be described thus: Flow cytometry of CXCR4 and CXCR3 expression on PBMC. The format is cell-based, human. The note with it: data not shown. How it is done:
PBMC were cultured in the presence of adefovir, tenofovir, and PMEO-DAPym and incubated at 37°C in a humidified, 5% CO2-controlled atmosphere. The expression of cellular activation markers was measured after 3 days of culture. Briefly, after washing the cells with PBS containing 2% FCS, we incubated them with PerCP-conjugated anti-CD4 mAb (clone SK3) in combination with PE-conjugated anti-CD25, anti-CD69, or anti-HLA-DR mAbs for 30 min at room temperature. For aspecific background staining, cells were stained in parallel with Simultest Control IgG γ1/γ2a and PerCP-conjugated mouse IgG1. Finally, the cells were washed with PBS, fixed with 1% formaldehyde solution, and analyzed with a FACSCalibur (BD Biosciences, San Jose, CA); data were acquired with CellQuest software and further analyzed with the FLOWJO software (Tree Star, San Carlos, CA). The expression of the chemokine receptors was measured after 24 h, and PBMC were incubated with PerCP-conjugated anti-CD4 mAb (clone SK3) in combination with APC-conjugated anti-CXCR4 mAb (clone 12G5) and PE-conjugated anti-CCR5 (clone 2D7) or anti-CXCR3 (clone 1C6). To evaluate the biological effects of the β-chemokines produced by drug-treated PBMC, freshly isolated PBMC were incubated for 1 h at 37°C with supernatants collected from PBMC cultures treated with compounds for 24 h. […]

The subject of data set [3] is organotypic epithelial raft cultures of the PHKs. The data set can be described thus: Histological examination of cell differentiation in raft cultures. The following applies: highest tested concentration 50 µg/ml.
Description: Primary human keratinocytes (PHKs) were seeded on top of collagen gels in 24-well microtiter plates and maintained submerged for 24–48 h. The collagen rafts were then raised and placed into stainless-steel grids at the interface between air and the liquid culture medium. The epithelial cells were allowed to stratify. Rafts were infected with 5,000 PFU of HSV-1KOS or HSV-2G at 10 days post lifting and treated with adefovir or PMEO-DAPym. Five days later, one series of rafts was fixed in 10% buffered formalin, embedded in paraffin, and stained with hematoxylin and eosin for histological evaluation.
For data set [4], the system named is PBMC. Briefly: Flow cytometry of activation markers on PBMC. The note with it: 72 h exposure. The format is cell-based, human. Here is the method: Figure 10 Expression of activation markers on PBMCs treated with adefovir, tenofovir, or PMEO-DAPym. PBMCs were incubated with adefovir, tenofovir, or PMEO-DAPym for 3 days. The mitogenic lectin PHA (at 2 µg/ml) was included as a positive control. We measured cell surface expression of CD4 and the activation markers CD69 (top panel), CD25 (middle panel), and HLA-DR (bottom panel) using flow cytometry with the […] CD4-specific mAb (clone SK3) and the phycoerythrin-labeled CD69, CD25, HLA-DR-specific mAbs. Shown are means ± SEM from two independent experiments.
PBMC were cultured in the presence of adefovir, tenofovir, and PMEO-DAPym and incubated at 37°C in a humidified, 5% CO2-controlled atmosphere. The expression of cellular activation markers was measured after 3 days of culture. […] Finally, the cells were washed with PBS, fixed with 1% formaldehyde solution, and analyzed with a FACSCalibur (BD Biosciences, San Jose, CA); data were acquired with CellQuest software and further analyzed with the FLOWJO software (Tree Star, San Carlos, CA). The expression of the chemokine receptors was measured after 24 h, and PBMC were incubated with PerCP-conjugated anti-CD4 mAb (clone SK3) in combination with APC-conjugated anti-CXCR4 mAb (clone 12G5) and PE-conjugated anti-CCR5 (clone 2D7) or anti-CXCR3 (clone 1C6). […]

The test system of data set [5] is M/M cultures. Briefly: Viability of M/M cultures. In kind it is cell-based, human. The following applies: 100 µg/ml. Here is the method:
Monocyte/macrophage (M/M) lineage cells can be infected by HSV-2 and HIV-1. M/M reside in genital herpes lesions and are thought to be reservoirs of HIV [6], [23]. […] Lower concentrations were dose-dependently inhibitory, with EC50 values ranging between 0.02 and 0.2 µg/ml (Table 1, Table 3).

For data set [6], the system named is HSV-1 (KOS strain). Briefly: Pre-treatment of PHK cell cultures, HSV-1 infection (CPE).
Description: The HSV-induced cytopathic effect (CPE) was evaluated in HSV-infected HEL and PHK cultures as described [44], [48].
Data set [7] concerns HSV-1 or HSV-2. Briefly: Topical treatment of athymic nude mice inoculated with HSV-1 or HSV-2. The format is in vivo. The following applies: topical gel twice daily for 5 days, p<0.05. How it is done:
Figure 8 Effects of adefovir and PMEO-DAPym on mortality in mice inoculated with HSV-1 or HSV-2. Groups of five nu/nu mice were inoculated with HSV-1 (panel A) or HSV-2 (panel B) on the lumbosacral area. Each cohort was then subjected to topical treatment twice daily for 5 consecutive days, starting on the day of viral infection. The placebo groups received a similar treatment with the test formulation without drug. Mortality was recorded over a period of 30 days. Animals were euthanized when more than 30% loss in body weight or development of paralysis occurred. We estimated survival rates according to the Kaplan-Meier method and compared them using the log-rank test (Mantel-Cox using GraphPad Prism).
Female adult NMRI athymic nude mice or hairless mice (weighing ∼20 g and approximately 4 weeks old) were scarified on the lumbosacral area over a surface of about 1 cm^2 with 5×10^3 PFU of HSV-1 (KOS) or 5×10^2 PFU of HSV-2 (G).
Formulations of adefovir and PMEO-DAPym (0.3% and 1%) in a gel (identical to that used in the CAPRISA 004 trial) were applied topically twice a day for a period of 5 days starting 1–2 h post infection. In each experiment, a group of animals was treated with a placebo formulation that contained exactly the same vehicle but without drug. […] Development of lesions and mortality were recorded over a 1-month period. […]

Data set [8] has as its system HSV. Further details: method as in PMID 20643915, PMID 20709216. The following applies: CAPRISA trial; cited from earlier work.
For data set [9], the system named is HSV-1 and HSV-2. The data set can be described thus: Organotypic epithelial raft cultures of PHKs, virus production. In kind it is cell-based. The note with it: HSV-1 and HSV-2, 20 µg/ml. How it is done: Figure 3 Inhibitory activities of tenofovir, adefovir, and PMEO-DAPym against laboratory HSV-1 and HSV-2 strains in organotypic epithelial raft cultures. Panels A (HSV-1) and B (HSV-2): Drugs at different concentrations were added to the raft cell cultures on the day of infection (10 days after initiation of differentiation). The drugs remained in the presence of the cells for 5 days until the rafts were frozen for determination of virus production with a plaque assay in HEL cell cultures. Error bars represent S.D.
The epithelial cells were allowed to stratify. […] Virus production per raft was then calculated.

The test system of data set [10] is HSV-2 (G). The arrangement: method as in PMID 22018238. The following applies: tonsilar tissue; cited from earlier work.
Setting [11] is: Human alphaherpesvirus 1, read-out: 50% effective concentration, PHK, HSV-1 KOS, +2 h to 72 h (control, drug present whole incubation).
[12] abbreviates: Human alphaherpesvirus 1, read-out: 50% effective concentration, PHK, HSV-1 KOS, pretreatment −2.5 h to 0 h.
Where [13] appears, read: Human alphaherpesvirus 1, read-out: 50% effective concentration, PHK, HSV-1 KOS, pretreatment −6 h to 0 h.
[14] abbreviates: Human alphaherpesvirus 1, read-out: 50% effective concentration, PHK, HSV-1 KOS, pretreatment −18 h to 0 h.

Regarding `Nc1cc(OCCOCP(=O)(O)O)nc(N)n1` [PMEO-DAPym, 6-phosphonylmethoxyethoxy-2,4-diaminopyrimidine], in data set [1], the PBMC viability entry is reported as “did not affect PBMC viability”. In data set [2], the “downregulation of CXCR4 or CXCR3” value was “No downregulation”. In addition, the “effect on cell differentiation (histological examination)” value in data set [3] is recorded as “no effect on cell differentiation”. In addition, the “upregulation of cell activation markers (HLA-DR, CD25, CD69 and others)” value in data set [4] was “none of the cell activation markers”. In [5], the “effect on the viability of M/M cultures” value was “No effect on the viability”. Besides, the EC50 in data set [6] (setting [11]) stood at 2.6 ± 0.8 µg/mL (≈ 9.84 µM); in data set [6] (setting [12]) it was 31.6 µg/mL (≈ 120 µM); in data set [6] (setting [13]) it was 29.6 µg/mL (≈ 112 µM); in data set [6] (setting [14]) it was 7 ± 0.6 µg/mL (≈ 26.5 µM). Moreover, in data set [7], the “virus-related morbidity and survival” value was “significantly delayed virus-related morbidity and prolonged the survival of the mice”.

In the case of `C[C@H](Cn1cnc2c(N)ncnc21)OCP(=O)(O)O` [Tenofovir, 9-(2-phosphonylmethoxypropyl)adenine], the “prevention of HSV infection” value in [8] was 51%. In addition, the “reduction of herpesvirus replication” value in data set [9] is recorded as < 0.5 log10. In data set [10], the “concentration that comparably inhibited HSV-2 replication” value was 240 µg/mL.

Turning to `Nc1ncnc2c1ncn2CCOCP(=O)(O)O` [Adefovir, 9-(2-phosphonylmethoxyethyl)adenine], the EC50 in data set [6] (setting [11]) came to 5.1 ± 1.7 µg/mL (≈ 18.7 µM); in [6] (setting [12]), 30 µg/mL (≈ 110 µM); in data set [6] (setting [13]), 23.3 µg/mL (≈ 85.3 µM); in [6] (setting [14]), 8.2 ± 1.6 µg/mL (≈ 30 µM). Besides, the “virus-related morbidity and survival” value in [7] was “significantly delayed virus-related morbidity and prolonged the survival of the mice”.
